According to patent US7989495B2, “Compositions and methods for inhibiting NF-κB mediated tumorigenicity and adhesion dependent survival of cancer cells” (University of Utah Research Foundation, priority 2002, dated 2011):

Key:
HCT-116 xenografts = experiment: Subcutaneous colon cancer xenograft in athymic mice; assay type: in vivo
Procedure: DLD-1, HCT-116, and HT-29 cells were cultured for 6 days in soft agar in the presence of DMSO (control), 10 μM BAY 11-7082, or 10 μM BAY 11-7085. The data points represent the means of colony counts per field (20×) performed in 5 different regions of the culture dishes. The data shown represent a typical result of two separate experiments. FIGS. 2B,C, show athymic mice received subcutaneous injections of HT-29 (B) or HCT-116 (C) cells, followed by […] of BAY 11-7085 (dark bars) or DMSO (white bars) intraperitoneally twice weekly. The bars represent the 25-75% ranges of the tumor volumes and the horizontal lines in the bars are the medians. Using the Kruskal-Wallace statistical test to compare the median tumor volumes between BAY 11-7085 and DMSO yielded a p-value of 0.005 for HT-29 cells but >0.05 for HCT-116 cells.
HT-29 and HCT-116 cells were harvested in 0.25% trypsin-PBS-EDTA, washed once in media and PBS, and resuspended in PBS at 1 million cells per 200 μL. One million cells were injected either subcutaneously in the backs or intraperitoneally in 5 week old female nu/nu athymic mice (Charles River Labs). For the mice with subcutaneous tumors, the tumors were allowed to establish themselves for 10 days after which they were randomized to BAY 11-7085 or DMSO. For the mice with intraperitoneal tumors, the mice received DMSO or BAY 11-7085 (5 mg/kg) 24 hours before the cancer cells were injected intrapentoneally. All mice received BAY 11-7085 (5 mg/kg) or an equal volume of DMSO (˜200 μL) twice weekly for 21-32 days. Subcutaneous tumor sizes were determined by measuring the length and width with calipers. These studies were approved by the U. of Utah Institutional Review Board and Institutional Animal Care and Use Committee and performed in the Animal Resource Center. Mice were euthanized when they experienced a greater than 10% loss in body weight or if they appeared ill. Post-mortem examinations included sectioning of kidney, lung, and liver tissues which were stained with hematoxylin and eosin followed by examination for tissue toxicity/damage by an experienced mouse pathologist (E.J.E.) who was blinded to therapy.
(Wang et al., 1999) However, BAY 11-7082 or BAY 11-7085 alone inhibit colon cancer xenograft growth in athymic mice. HC-116, and HT-29 cell lines were used to generate subcutaneous tumors in athymic female mice. The mice were subsequently randomized to be treated with vehicle (DMSO) alone or BAY 11-7085 1 mg/kg twice weekly for 28 days.

[1] = test system: DLD-1 cells expressing IκB super-repressor; experiment: Readhesion survival of cells transduced with adenovirus IκB super-repressor (crystal violet); assay type: cell-based; settings: subapoptotic concentrations, readhesion 8 h
Procedure: (§1) The percentage of apoptotic cells was determined using the annexin V assay. The data points represent the averages of three experiments; bars, ±SE. E. DLD-1 and F. HT-29 cells were transduced with an adenovirus containing the IκB super-repressor construct. After 3 days, the cells were transiently suspended and allowed to readhere in the presence of subapoptotic concentrations of BAY 11-7085 or DMSO (vehicle) for 8 h. The data are expressed as fractions of cells surviving compared with the controls (no adenovirus) and were quantitatively determined by staining the remaining adherent cells with crystal violet.
(§2) DLD-1 and HT-29 cells that were approximately 60-70% confluent were transduced with Ad-IκB super-repressor by adding 1-50 μl of purified virus to the cells. […] In a parallel experiment, the transduced cells were resuspended and allowed to readhere in BAY 11-7085 for 8 h. The percentage of surviving (nonapoptotic) cells was determined using crystal violet staining.
(§3) The specific involvement of NF-κB in the apoptotic mechanism of BAY 11-7085 was examined specifically. […] The transduced DLD-1 and HT-29 cells were then transiently suspended and allowed to readhere at concentrations of BAY 11-7085 below the in vitro apoptotic threshold (>20 μM) for these cell lines. […] Therefore, inhibition of NF-κB is important to the apoptotic effect of BAY 11-7085 during colon cancer cell readhesion.

[2] = test system: HT-29 cells expressing IκB super-repressor; experiment: as above; assay type: cell-based; settings: subapoptotic concentrations, readhesion 8 h
Procedure: as §1, §2, §3

## CC(C)(C)c1ccc(S(=O)(=O)/C=C/C#N)cc1 [BAY 11-7085, (2E)-3-[4-(tertiarybutylphenyl)sulfonyl]-2-propenenitrile]
HCT-116 xenografts; HCT-116, intraperitoneally twice weekly
  p-value, Kruskal-Wallace test of median tumor volumes vs DMSO: > 0.05
HCT-116 xenografts; HCT-116 subcutaneous tumors, 1 mg/kg twice weekly for 28 days, vs DMSO
  tumor volumes, treatment group compared with control group: no statistically significant overall difference in the tumor volumes
[1]
  apoptotic threshold with IκB super-repressor expression compared with controls: significantly lowered the apoptotic threshold
[2]
  apoptotic threshold with IκB super-repressor expression compared with controls: significantly lowered the apoptotic threshold
